Measured values reported in paper PMC11930985 (Nature Communications, 2025).
Values after ≈ are worked out from the molar mass of the structure shown. Values joined by “and” are separate entries in the source; they are usually repeats but may differ in a detail not shown here. Equal entries are not always repeated.

Legend:
OCI-AML5 xenograft = system: OCI-AML5 xenograft; design: method as in Investigator's Brochure (IB) version 5.0; details: ref Investigator's Brochure (IB) version 5.0; cited from earlier work
AML/MDS patients = experiment: Kaplan-Meier OS, EFS, RFS; assay type: in vivo, human
Protocol: Response assessments (peripheral blood and BM) were performed at Cycle 2 Day 1 (pre-dose), Cycle 4 Day 1 (pre-dose) and repeated every 3 cycles thereafter or when clinically indicated. Patients who completed 12 months of study treatment and had not experienced progressive disease (PD) underwent response assessment every 5 cycles until PD was confirmed. Efficacy endpoints were: Objective response rate (ORR), defined as the number of patients with CR, CRi, MLFS, MR or PR divided by the total number of patients in the cohort/group; Disease control rate (DCR), defined as the number of patients with CR, CRi, MLFS, MR, PR or unchanged disease for at least three cycles (considered to have stable disease (SD)) divided by the total number of patients in the cohort/group; Overall survival (OS), defined as (date of death or censoring) – (date of the first study treatment) +1. Censoring date was the last date the patient was known to be alive; Event free survival (EFS), defined as (earliest of date of death, date of progression or date of censoring) – (date of the first study treatment) +1, with event defined as death or progression. Patients who started a new anti-cancer treatment before documented progression were censored at the date of the last assessment prior to start of non-protocol treatment. […] Patients who were alive without documented progression on the last day of contact were censored at the date of the last assessment.
Analyses were performed on response data, AEs, and PK parameters. Subgroup analysis by sex was not performed due to the small number of patients. Statistical analyses were performed using descriptive statistics. The time-to-event variables RFS, EFS, and OS were analyzed using Kaplan-Meier estimates, and median time-to-event was reported alongside its 95% confidence interval (CI). Where relevant, differences between different subgroups for time-to-event endpoints were assessed using a one-tailed log-rank test.

bacterial mutation = details: ref Investigator's Brochure (IB) version 5.0; cited from earlier work
[1] = system: bone marrow cells from patients with primary AML; design: method as in Ben-Batalla et al., 2013; details: ref Ben-Batalla et al., 2013; cited from earlier work
pAKT S473 = experiment: CyTOF maximal inhibition in Undefined/Immature Myeloid cells: pAKT; assay type: in vivo, human
From the text: (§1) Pharmacodynamic endpoints included the measurement of inhibition of pAXL, pERK, pAKT, pS6 and pSTAT1/3/5 in blast cells (defined as cells with abnormal surface marker expression as compared to healthy donor peripheral blood mononuclear cells and undefined/immature myeloid cells (defined as cells carrying myeloid markers but lacking distinguishing terminal differentiation markers). Mass cytometry time of flight (CyTOF) was used for the determination of the pharmacodynamic markers using a previously validated and tested panel of mass-tagged antibodies[39],[40]. The antibodies in the panel are listed in Supplementary Table 5. Briefly, fixed leukocytes from peripheral blood were barcoded using a 20-plex metal barcoding kit (Standard Biotools, Cell-ID 201060) according to manufacturer’s protocol, allowing all the samples from a single individual to be stained and analysed in parallel. All analysis runs included barcoded peripheral blood mononuclear cells (PBMCs) from at least one healthy donor and an identical barcoded reference sample (mix of PBMCs from six healthy donors). […]
(§2) For each population, marker, and sample, the 95th percentile of the non-transformed expression values was calculated. […]

Flt4 = system: Flt4; design: method as in Investigator's Brochure (IB) version 5.0; details: ref Investigator's Brochure (IB) version 5.0; cited from earlier work
pERK1/2 T202/Y204 = experiment: CyTOF maximal inhibition in Undefined/Immature Myeloid cells: pERK1/2; assay type: in vivo, human
From the text: as §1, §2

Nc1nc(Nc2ccc3c(c2)CC[C@@H](N2CCCC2)CC3)nn1-c1cc2c(nn1)-c1ccccc1CCC2 [Bemcentinib]
Tumor growth (OCI-AML5 xenograft): inhibited | mEFS (95% CI) (AML/MDS patients; DE 200/100 mg, N=4): 4.4 (0.5-NA) months | mOS (95% CI) (AML/MDS patients; DE 200/100 mg, N=4): 5.9 (4.4-NA) months | mEFS (95% CI) (AML/MDS patients; DE 400/100 mg, N=6): 5.3 (2.6-NA) months | mOS (95% CI) (AML/MDS patients; DE 400/100 mg, N=6): 19 (2.6-NA) months | mEFS (95% CI) (AML/MDS patients; DE 400/200 mg, N=7): 1.6 (0.7-NA) months | mOS (95% CI) (AML/MDS patients; DE 400/200 mg, N=7): 8.6 (0.8-NA) months | mEFS (95% CI) (AML/MDS patients; DE 600/200 mg, N=14): 1.2 (0.7-2.1) months | mOS (95% CI) (AML/MDS patients; DE 600/200 mg, N=14): 2.5 (1.1-NA) months | mOS (95% CI) (AML/MDS patients; DE 900/300 mg, N=5): 6.9 (NA-NA) months | mEFS (95% CI) (AML/MDS patients; DE overall, N=36): 2.1 (1.4-2.8) months | mOS (95% CI) (AML/MDS patients; DE overall, N=36): 5.3 (2.6-9.1) months | Ames bacterial mutation assay result (bacterial mutation): negative | Patients whose bone marrow cells were sensitive to BGB324 [1]: 7 out of 11 | Sensitization of primary patient AML cells to Ara-C [1]: sensitizes | EC50 (pAKT S473; Homo sapiens, Undefined/Immature Myeloid cells, N = 12 patients, read-out: EC50 (± standard error), pAKT S473 inhibition): 0.162 µg/mL (≈ 0.32 µM) | Maximum inhibition (percent) pAKT (S473) (pAKT S473; Supplementary Figure 1d, individual patients): 59.9% and 67.4% and 81.4% and 10.2% and 98.8% and 2.4% and 56.3% and 0% and 5.8% and 33.9% and 39.1% and 94.9% | IC50 (Flt4): 41 nM | EC50 (pERK1/2 T202/Y204; Homo sapiens, Undefined/Immature Myeloid cells, N = 12 patients, read-out: EC50 (± standard error), pERK1/2 T202/Y204 inhibition): 0.0873 ± 0.0017 µg/mL (≈ 0.172 µM) | Maximum inhibition (percent) pERK1/2 (T202/Y204) (pERK1/2 T202/Y204; Supplementary Figure 1c, individual patients): 87.1% and 71.6% and 100% and 8.8% and 98.1% and 30.4% and 66.9% and 0% and 5.7% and 94.5% and 39.2% and 69.3%
